Reference: patent US8022235B2, “Compositions of phospholipid ether boronic acids and esters and methods for their synthesis and use” (Cellectar, Inc., priority 2007, dated 2011)
Entries after “also recorded” stand apart in the source; their conditions may differ.

Key:
[1] = tested on: A549 human non-small cell lung cancer xenografts; assay: Single-dose 125I-NM404 treatment, tumor volume, A549 xenografts; type: in vivo, SCID mice; conditions: unlabeled compound (control group), 10-week assessment
From the text: FIG. 3 illustrates antitumor effect of single-dose treatment with ^125I-125-NM404 at doses of 50 (∘), 150 (□), 250 (⋄) and 500 (∘) μCi in SCID mice bearing A549 human non-small cell lung cancer xenografts. In FIG. 3, control animals show rapidly growing tumors over the 10-week assessment period. […] Tumor volumes are stable and some tumors appear “collapsed” (the tumor surface has collapsed). Additionally, hair above the tumors fell off confirming substantial accumulation of radioactivity in these tumors.
FIG. 4 is an image showing one of the tumor-bearing animals treated with 250 μCi of ^125I-NM404 at 4 weeks following injection. The hair above the tumor has fallen off, apparently due to the significant accumulation of radioactivity in the tumor. […] The measurement method for determining outer tumor dimensions may have underestimated tumor volume response following dosing with ^125I-NM404;
The inventors have previously shown that ^125I-labeled PLE analogs such as NM404 are effective in targeting tumor therapies to tumor cells following single injection and fractionated dosing. For assessment of efficacy of ^125I-NM404 treatment, assessments of tumor volume were made until 10 weeks post-injection or until no animal in the control group was alive, whatever came first. Summarizing the results, control animals show rapidly growing tumors over the 10-week assessment period. See, FIGS. 2 and 3. […] Tumor volumes are stable and the same tumors appear “collapsed” (the tumor surface has caved in). Additionally, the hair above the tumors fell off confirming substantial accumulation of radioactivity in these tumors, FIG. 4. […] (See also, for example, U.S. patent application Ser. No. 11/671,403 hereby incorporated in its entirety for all purposes.)

[2] = tested on: human PC-3 prostate tumor xenografts; assay: Scintigraphy, microPET and tissue distribution in PC-3 tumor model; type: in vivo, SCID mice
Protocol: The avidity of PLE and APC analogs to localize in tumors was evaluated in several animal models. The PC-3 model represents a human tumor cell line that was used to determine the target (tumor) to non-target ratio of NM404 and NM412 in head to head comparison in order to select a candidate for an initial human pharmacokinetic trial in prostate cancer patients. The MatLyLu (Dunning R3327 rat) model, a rat prostate tumor line, was used specifically to screen 9 specific analogs prior to entering them into control for dosimetry and tumor-bearing animals for determining tumor/background ratios. Finally, the Walker-256 carcinosarcoma model was used for quantitative tissue distribution purposes.
Gamma camera scintigraphy images shown in FIG. 5 directly compare the tumor uptake and body clearance of second generation analog ^125I-NM404 (1) versus its shorter chain, first generation predecessor, ^125I-NM324 (12-(m-iodophenyl)dodecyl phosphocholine) at 1, 2, and 4 days post administration in immune-compromised SCID mice bearing human PC-3 prostate tumor xenografts.
Tumor uptake, however, continued to increase up until day 5 when it reached 18% injected dose per gram of tumor. […] Tumor to background tissue ratios exceeded 4, 6.8, 23, and 9 in blood, liver, muscle, and prostate, respectively, 3 days after injection and continued to improve at 5 and 8 days. Again, although thyroid levels ranged from 26 to 54% injected dose per gram of tissue, these levels are actually quite low and represent an extremely small percentage of the injected dose when the exceedingly small mass of the organ is considered and the data are presented on a percent administered dose per organ basis.

[3] = tested on: Adrenal H-295; assay: Imaging and tissue distribution, tumor model; type: in vivo, SCID Mouse; conditions: Adenocarcinoma
[4] = tested on: Melanoma A-375; assay: Imaging and tissue distribution, tumor model; type: in vivo, Nude Mouse; conditions: Adenocarcinoma
[5] = tested on: Colon LS-180; assay: Imaging and tissue distribution, tumor model; type: in vivo, Nude Mouse; conditions: Adenocarcinoma
[6] = tested on: Mammary MCF-7; assay: Imaging and tissue distribution, tumor model; type: in vivo, Rat; conditions: Adenocarcinoma
[7] = tested on: Subcutaneous CT-26; assay: Imaging and tissue distribution, tumor model; type: in vivo, Mouse xenograft; conditions: Colorectal adenocarcinoma
From the text: Imaging and tissue distribution studies performed in mouse models aimed at determining the uptake characteristics in a wide variety of tumor models are summarized in Table 1, below.

[8] = tested on: SCC1 and 6; assay: Imaging and tissue distribution, tumor model; tumor regression; type: in vivo; conditions: Squamous cell carcinoma
From the text: (§1) During the course of mouse tumor uptake and retention studies with “imaging” doses (15-20 μCi/20 g mouse) of ^125I-labeled NM404, several apparent therapeutic responses have been observed (unpublished results). […] Some of these animals also lost all hair above larger mammary tumors at around 8 days after injection. Moreover, these mice also get intestinal tumors and usually suffer from intestinal bleeding resulting in severe anemia, which renders their feet white. […] Another compelling example of tumor regression is illustrated in FIG. 13. Two litter mates each received SCC1 and SCC6 xenografts in their left and right flanks, respectively. One mouse received a single injection of ^125I-NM404 (20 μCi). […] These coincidental findings were reconfirmed in two separate age-matched groups each involving more than 6 mice.

[9] = tested on: Adenomatous Polyp; assay: Imaging and tissue distribution, tumor model; type: in vivo, Spontaneous Mouse; conditions: Adenoma
[10] = tested on: Mammary Hyperplasia; assay: Imaging and tissue distribution, tumor model; type: in vivo, Endogenous Mouse; conditions: Alveolar Hyperplasia
[11] = tested on: spontaneous murine lung tumors; assay: Bioscan imaging of spontaneous lung tumor; type: in vivo, ApcMin mouse; conditions: 125I-NM404, image 4 days post injection, 2 mm tumor
[12] = tested on: mouse intestinal adenocarcinoma model; assay: Therapeutic responses at imaging doses, aggressive intestinal model; type: in vivo; conditions: 12 days following administration, ^125I-labeled
From the text: as §1

[13] = tested on: animal tumor models; assay: Imaging and biodistribution across animal tumor models (general statements)
From the text: See, for example, U.S. patent application Ser. Nos. 10/906,687, 11/177,740, 11/316,620 and 11/382,645. Due to deficiencies in metabolic phospholipase enzymes in the membranes of malignant tumor cells, the prevailing hypothesis for this specificity is that phospholipid ether analogs become trapped exclusively in tumor cell membranes because of their inability to become metabolized and eliminated by the cancerous cell. Thus, the differential clearance rates of phospholipid ethers from normal cells versus neoplastic tumor cells are responsible for this specificity.
The reason for the retention of PLE and analogs in cancer cells remains unknown. Without being held to any particular theory, however, the prevailing hypothesis, is that radioiodinated PLE and APC analogs become trapped in tumor cell membranes because of their inability to be metabolized and eliminated. On the other hand, such lipid molecules are metabolized and cleared by normal tissues, including the liver.
These PLE analogs are specifically designed to incorporate aromatic radioiodine in order to render the molecule stable towards in vivo deiodination.

[14] = tested on: animal tumor models; conditions: radioiodinated analogs, xenograft and spontaneous tumor rodent models, previous reports; cited from earlier work

For `C[N+](C)(C)CCOP(=O)([O-])OCCCCCCCCCCCCCCCCCCc1ccc(I)cc1` [NM404, 18-(p-iodophenyl)-octadecyl phosphocholine], the “effect on tumor growth” value [1] was “no substantial effect on tumor growth”, the “tumor to background tissue ratio, blood” value ([2]; 3 days after injection) was “exceeded 4” and the “tumor to background tissue ratio, liver” value ([2]; 3 days after injection) was greater than 6.8. For the same molecule, the “tumor to background tissue ratio, muscle” value ([2]; 3 days after injection) was greater than 23, the “tumor to background tissue ratio, prostate” value ([2]; 3 days after injection) was greater than 9 and the “elimination of radioactivity from normal tissues” value ([2]; 8 day evaluation period) was “rapid elimination of radioactivity from all normal tissues”. For the same molecule, the Uptake ([2]; Prostate PC-3, Adenocarcinoma) was “Yes”, the tumor uptake ([2]; SCID mouse prostate and A549 lung cancer tumor models) was “exceeding 25 % of the injected dose” and the tumor uptake ([2]; radioiodinated NM404, day 5 (maximum)) was 18 % injected dose per gram of tumor. For the same molecule, the “liver and background radioactivity” value ([2]; scintigraphy at 1, 2 and 4 days, compared with NM324) was “much improved”, the Uptake [3] was “Yes” and the Uptake [4] was “Yes”. The Uptake [5] was “Yes”, the Uptake [6] was “Yes” and the Uptake [7] was “Yes”. The Uptake [8] was “Yes”, the Uptake [9] was “No” and the Uptake [10] was “No”. The “uptake / retention in tumor” value [11] was “retained in spontaneous murine lung tumors; also recorded: intense uptake”, the “intestinal tumors at dissection” value [12] was “most, if not all, of the expected intestinal tumors were gone” and the “tumor concentrations over time” value ([13]; following administration) was “almost stable for many weeks”. For the same molecule, the “elimination from normal tissue” value ([13]; in vivo) was “eliminated from normal tissue within a few days”, the tumor retention ([13]; over 27 animal tumor models, every model and tumor type studied) was “tumor-selective retention” and the tumor selectivity ([13]; radioiodinated, 37 of 37 models investigated) was “remarkable tumor selectivity”. The “uptake into the tumor tissue” value ([13]; up to) was 10-25 % of the injected dose and the “selective retention by tumors” value [14] was “selectively retained by a variety of human and animal tumors”.
